Data taken from ChEMBL document CHEMBL4251603, “Structure-activity studies on N-Substituted tranylcypromine derivatives lead to selective inhibitors of lysine specific demethylase 1 (LSD1) and potent inducers of leukemic cell differentiation” (Eur J Med Chem, 2018).
Activity calls are given as the source filed them. The calls are words filed in the database; no cut-off is given here.

Tests used:
[1] = molecular target: T1, Amine oxidase [flavin-containing] B (Homo sapiens, UniProt P27338); experiment: (§1) Inhibition of MAO-B (unknown origin) at 10 uM using beetle luciferin derived luminogenic substrate preincubated for 15 mins followed by substrate addition measured after 60 mins by MAO-Glo assay relative to control; settings: 1 h, 10 µM
T1 sequence (P27338 whole entry): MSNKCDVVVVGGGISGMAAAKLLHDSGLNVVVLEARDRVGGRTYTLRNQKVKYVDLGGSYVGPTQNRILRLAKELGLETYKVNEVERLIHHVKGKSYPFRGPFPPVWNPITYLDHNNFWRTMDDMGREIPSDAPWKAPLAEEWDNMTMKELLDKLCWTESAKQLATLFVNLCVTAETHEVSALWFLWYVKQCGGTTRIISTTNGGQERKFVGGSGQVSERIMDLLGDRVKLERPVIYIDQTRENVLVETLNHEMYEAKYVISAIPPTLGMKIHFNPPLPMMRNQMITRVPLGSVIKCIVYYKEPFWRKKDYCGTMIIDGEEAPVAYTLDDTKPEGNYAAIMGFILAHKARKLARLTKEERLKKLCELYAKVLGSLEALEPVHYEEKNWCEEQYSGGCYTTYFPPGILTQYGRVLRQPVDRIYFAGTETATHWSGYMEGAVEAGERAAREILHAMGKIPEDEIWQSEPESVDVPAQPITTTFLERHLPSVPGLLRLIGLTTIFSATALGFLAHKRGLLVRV

MAO-A [2] = molecular target: T2, MAO-A (Homo sapiens, UniProt P21397); experiment: in vitro; settings: MAO-A enzyme (unknown origin), probe beetle luciferin derived luminogenic substrate
T2 sequence (P21397 whole entry): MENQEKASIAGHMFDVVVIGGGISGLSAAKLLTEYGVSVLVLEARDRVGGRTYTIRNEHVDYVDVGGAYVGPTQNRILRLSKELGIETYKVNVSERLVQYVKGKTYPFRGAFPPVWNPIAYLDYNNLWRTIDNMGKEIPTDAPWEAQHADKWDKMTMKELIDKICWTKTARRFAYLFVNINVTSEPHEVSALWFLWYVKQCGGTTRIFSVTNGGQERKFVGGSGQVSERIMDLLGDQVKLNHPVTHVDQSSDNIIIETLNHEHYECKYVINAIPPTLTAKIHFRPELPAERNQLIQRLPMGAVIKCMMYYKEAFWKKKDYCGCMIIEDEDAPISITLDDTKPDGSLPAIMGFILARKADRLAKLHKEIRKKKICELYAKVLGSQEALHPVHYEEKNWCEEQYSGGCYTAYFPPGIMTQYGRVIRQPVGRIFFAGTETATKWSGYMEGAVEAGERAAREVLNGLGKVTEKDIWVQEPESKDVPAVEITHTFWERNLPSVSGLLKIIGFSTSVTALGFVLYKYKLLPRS

MAO-A [3] = molecular target: T2, MAO-A; experiment: Inhibition of MAO-A (unknown origin) at 1 uM using beetle luciferin derived luminogenic substrate preincubated for 15 mins followed by substrate addition measured after 60 mins by MAO-Glo assay relative to control; settings: MAO-A enzyme (unknown origin), probe beetle luciferin derived luminogenic substrate
[4] = molecular target: T3, Lysine-specific histone demethylase 1A (Homo sapiens, UniProt O60341); settings: 100 uM
[5] = molecular target: T1, Amine oxidase [flavin-containing] B; experiment: Inhibition of MAO-B (unknown origin) using beetle luciferin derived luminogenic substrate preincubated for 15 mins followed by substrate addition measured after 60 mins by MAO-Glo assay
[6] = molecular target: T4, Amine oxidase [flavin-containing] A (Homo sapiens, UniProt P21397)
T4 sequence (P21397 whole entry): T2 sequence (P21397 whole entry)

MAO-B [7] = molecular target: T5, MAO-B (Homo sapiens, UniProt P27338); experiment: in vitro; settings: MAO-B enzyme (unknown origin), probe beetle luciferin derived luminogenic substrate
T5 sequence (P27338 whole entry): T1 sequence (P27338 whole entry)

MAO-B [8] = molecular target: T5, MAO-B; experiment: as §1; settings: MAO-B enzyme (unknown origin), probe beetle luciferin derived luminogenic substrate
THP-1 = experiment: Inhibition of colony formation in human THP1 cells at 0.5 uM after […] by light microscopic method relative to control; type: functional
[9] = molecular target: Lysine-specific histone demethylase 1A (Mus musculus) (UniProt Q6ZQ88); experiment: Inhibition of LSD1 in mouse Hoxa9/Meis1 transformed progenitor cells assessed as induction of granulocytic differentiation at 50 to 100 nM up to 96 hrs by pappenheim staining based assay
[10] = molecular target: Lysine-specific histone demethylase 1A (Mus musculus) (UniProt Q6ZQ88); experiment: Inhibition of LSD1 in mouse Hoxa9/Meis1 transformed progenitor cells assessed as reduction in c-Kit positive cells at 100 nM after 96 hrs by flow cytometry; type: cell-based
[11] = molecular target: T3, Lysine-specific histone demethylase 1A

## COc1ncccc1CN[C@H]1C[C@@H]1c1ccccc1
[1]
  inhibition (INH): Not Active

## COc1cccc(CN[C@H]2C[C@@H]2c2ccccc2)c1 (relative stereo)
[1]
  inhibition (INH): Not Active
MAO-A [2]
  inhibition at 1 h, 10 µM: 79%

## Cc1ccc(CN[C@H]2C[C@@H]2c2ccccc2)cc1Cl (relative stereo)
MAO-A [3]
  inhibition at 1 h, 1 µM: 69%

## Fc1ccc(CN[C@H]2C[C@@H]2c2ccccc2)cc1 (relative stereo)
MAO-A [3]
  inhibition at 1 h, 1 µM: 27%

## C[C@@H]1[C@H](NCc2ccc(Cl)cc2Cl)[C@H]1c1ccccc1 (relative stereo)
[4]
  inhibition: inactive
[5]
  IC50: 56.2 µM
[6]
  IC50: 780 nM

## O=[N+]([O-])c1ccccc1CN[C@H]1C[C@@H]1c1ccccc1 (relative stereo)
MAO-A [3]
  inhibition at 1 h, 1 µM: 18%
MAO-B [7]
  inhibition at 1 h, 1 µM: 15%

## Clc1ccccc1CN[C@H]1C[C@@H]1c1ccccc1 (relative stereo)
MAO-B [8]
  inhibition at 1 h, 10 µM: 21%
MAO-A [2]
  inhibition at 1 h, 10 µM: 62%

## Fc1cc(Br)ccc1CN[C@H]1C[C@@H]1c1ccccc1 (relative stereo)
MAO-A [3]
  inhibition at 1 h, 1 µM: 27%

## Brc1ccc(COc2ccc(CN[C@H]3C[C@@H]3c3ccccc3)cc2)cc1 (relative stereo)
MAO-A [3]
  inhibition at 1 h, 1 µM: 100%
MAO-B [7]
  inhibition at 1 h, 1 µM: 44%

## C[C@@H]1[C@@H](N)[C@H]1c1ccccc1.Cl (relative stereo)
[4]
  inhibition: inactive
[1]
  inhibition (INH): Not Active

## O=[N+]([O-])c1cccc(CN[C@H]2C[C@@H]2c2ccccc2)c1 (relative stereo)
[5]
  IC50: 1.4 µM
THP-1
  inhibition at 0.5 µM: 80%
[9]
  inhibition: Active
[10]
  inhibition: Active
[6]
  IC50: 488 nM

## CC(=O)Nc1ccc(CN[C@H]2C[C@@H]2c2ccccc2)cc1 (relative stereo)
MAO-B [8]
  inhibition at 1 h, 10 µM: 17%
MAO-A [2]
  inhibition at 1 h, 10 µM: 48%

## c1ccc(COc2ccc(CN[C@H]3C[C@@H]3c3ccccc3)cc2)cc1 (relative stereo)
MAO-A [3]
  inhibition at 1 h, 1 µM: 93%
MAO-B [7]
  inhibition at 1 h, 1 µM: 52%

## O=[N+]([O-])c1ccc(N[C@H]2C[C@@H]2c2ccccc2)s1 (relative stereo)
MAO-A [3]
  inhibition at 1 h, 1 µM: 94%
MAO-B [7]
  inhibition at 1 h, 1 µM: 79%

## Clc1cc(Cl)cc(CN[C@H]2C[C@@H]2c2ccccc2)c1 (relative stereo)
MAO-A [3]
  inhibition at 1 h, 1 µM: 30%
MAO-B [7]
  inhibition at 1 h, 1 µM: 17%

## Ic1ccccc1CN[C@H]1C[C@@H]1c1ccccc1 (relative stereo)
MAO-A [3]
  inhibition at 1 h, 1 µM: 12%
MAO-B [7]
  inhibition at 1 h, 1 µM: 16%

## COc1ncccc1CN[C@H]1[C@@H](C)[C@@H]1c1ccccc1 (relative stereo)
MAO-B [8]
  inhibition at 1 h, 10 µM: 14%
[6]
  IC50: 41400 nM
[11]
  IC50: Not Active

## Brc1cccc(CN[C@H]2C[C@@H]2c2ccccc2)c1 (relative stereo)
MAO-A [3]
  inhibition at 1 h, 1 µM: 38%

## Brc1ccc(COc2cccc(CN[C@H]3C[C@@H]3c3ccccc3)c2)cc1 (relative stereo)
MAO-A [3]
  inhibition at 1 h, 1 µM: 100%
MAO-B [7]
  inhibition at 1 h, 1 µM: 32%

## COc1ccccc1CN[C@H]1[C@@H](C)[C@@H]1c1ccccc1 (relative stereo)
[1]
  inhibition (INH): Not Active
[11]
  IC50: Not Active
MAO-A [2]
  inhibition at 1 h, 10 µM: 32%

## c1ccc(-c2ccc(CN[C@H]3C[C@@H]3c3ccccc3)cc2)cc1 (relative stereo)
MAO-A [3]
  inhibition at 1 h, 1 µM: 93%
MAO-B [7]
  inhibition at 1 h, 1 µM: 82%

## CC(C)(C)c1ccc(CN[C@H]2C[C@@H]2c2ccccc2)cc1 (relative stereo)
MAO-A [3]
  inhibition at 1 h, 1 µM: 22%
MAO-B [7]
  inhibition at 1 h, 1 µM: 27%

## COc1ccccc1CN[C@H]1C[C@@H]1c1ccccc1 (relative stereo)
MAO-B [8]
  inhibition at 1 h, 10 µM: 36%
